Measured values reported in patent US8993585B2, “Cyclic amine substituted pyrimidinediamines as PKC inhibitors” (Rigel Pharmaceuticals, Inc., priority 2007, dated 2015).

Tested on: Human primary T cells
Assay: IL-2 ELISA, Human Primary T Cell, Anti-CD3+CD28+ (Example 3)
Assay type: cell-based
Conditions: anti-CD3+CD28 stimulation
In short: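 Human primary T cells, 100,000 per well, were pre-incubated with compound in Yssel's medium for 1 h at 37 °C. The counter-assay used 0.5 ng/ml PMA with 0.1 uM ionomycin final.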

SMILES | IC50 (24 hours) | further results
CC1(C)CC(Nc2nc(Nc3cccc(-n4cnnn4)c3)ncc2C#N)CC(C)(C)N1 [Compound I-393] | 430 nM | –
COCCOc1cc(Nc2ncc(F)c(NC3CC(C)(C)NC(C)(C)C3)n2)cc(OCCOC)c1 [Compound I-394] | 2960 nM | –
CCCc1nnnn1-c1cc(Nc2ncc(F)c(NC3CC(C)(C)N(C)C(C)(C)C3)n2)ccc1OC [Compound I-395] | 100 nM | –
Cc1nnnn1-c1cccc(Nc2ncc(F)c(NC3CC(C)(C)N(C)C(C)(C)C3)n2)c1 [Compound I-396] | 100 nM | –
Cc1cc(Nc2ncc(F)c(NC3CC(C)(C)N(C)C(C)(C)C3)n2)ccc1-n1cnnn1 [Compound I-397] | 1980 nM | –
Cc1ccc(Nc2ncc(F)c(NC3CC(C)(C)N(C)C(C)(C)C3)n2)cc1-n1cnnn1 [Compound I-398] | 50 nM | –
CSc1nnnn1-c1cccc(Nc2ncc(F)c(NC3CC(C)(C)N(C)C(C)(C)C3)n2)c1 [Compound I-399] | 50 nM | –
CN1C(C)(C)CC(Nc2nc(Nc3ccc(-n4cnnn4)cc3)ncc2F)CC1(C)C [Compound I-400] | 1690 nM | –
COc1ccc(Nc2ncc(F)c(NC3CC(C)(C)N(C)C(C)(C)C3)n2)cc1OCC(F)(F)F [Compound I-401] | 3160 nM | –
COc1cc(Nc2ncc(C#N)c(NC3CC(C)(C)NC(C)(C)C3)n2)cc(-n2nnnc2C)c1 [Compound I-402] | 470 nM | –
COc1cc(Nc2ncc(C#N)c(NC3CC(C)(C)NC(C)(C)C3)n2)cc(-n2cnnn2)c1 [Compound I-403] | 500 nM | –
COc1cc(Nc2ncc(C#N)c(NC3CC(C)(C)N(C)C(C)(C)C3)n2)cc(-n2cnnn2)c1 [Compound I-404] | 170 nM | –
CN1C(C)(C)CC(Nc2nc(Nc3cccc(-n4cnnn4)c3)ncc2C#N)CC1(C)C [Compound I-405] | 240 nM | –
CN1C(C)(C)CC(Nc2nc(Nc3cc(OCC(F)(F)F)cc(OCC(F)(F)F)c3)ncc2C(N)=O)CC1(C)C [Compound I-406] | 480 nM | –
COc1cc(Nc2ncc(F)c(NC3CC(C)(C)N(C)C(C)(C)C3)n2)ccc1-n1nnnc1C [Compound I-407] | 2690 nM | –
CC1(C)CC(Nc2nc(Nc3cc(OCC(F)(F)F)cc(OCC(F)(F)F)c3)ncc2C(N)=O)CC(C)(C)N1 [Compound I-408] | 1040 nM | –
CCOc1ccc(Nc2ncc(F)c(NC3CC(C)(C)N(C)C(C)(C)C3)n2)cc1-n1nnnc1CC [Compound I-409] | 50 nM | –
CN1C(C)(C)CC(Nc2nc(Nc3ccc(C(F)(F)F)c(C(F)(F)F)c3)ncc2F)CC1(C)C [Compound I-410] | 1440 nM | –
CN1C(C)(C)CC(Nc2nc(Nc3cc(OCC(F)(F)F)cc(OCC(F)(F)F)c3)ncc2C#N)CC1(C)C [Compound I-411] | 280 nM | –

SMILES | IC50 (24 hours) | further results
COc1ccc(Nc2ncc(F)c(NC3CC(C)(C)N(C)C(C)(C)C3)n2)cc1OCC(=O)NC1CC1 [Compound I-412] | 6550 nM | –
COCCOc1cc(Nc2ncc(F)c(NC3CC(C)(C)N(C)C(C)(C)C3)n2)ccc1OC [Compound I-413] | 6150 nM | –
Cc1nnnn1-c1cccc(Nc2ncc(F)c(NC3CC(C)(C)NC(C)(C)C3)n2)c1 [Compound I-414] | 160 nM | –
COc1ccc(Nc2ncc(F)c(NC3CC(C)(C)N(C)C(C)(C)C3)n2)cc1OCc1ccncc1 [Compound I-417] | 2670 nM | –
COc1ccc(Nc2ncc(F)c(NC3CC(C)(C)N(C)C(C)(C)C3)n2)cc1OCc1cccnc1 [Compound I-418] | 2190 nM | –
CC1(C)CC(Nc2nc(Nc3cc(OCC(F)(F)F)cc(OCC(F)(F)F)c3)ncc2C#N)CC(C)(C)N1 [Compound I-419] | 270 nM | –
COc1ccc(Nc2ncc(F)c(NC3CC(C)(C)N(C)C(C)(C)C3)n2)cc1OCCN(C)C [Compound I-421] | 4630 nM | –
COc1cc(Nc2ncc(OC)c(NC3CC(C)(C)N(C)C(C)(C)C3)n2)cc(OC)c1 [Compound I-423] | – | IC50 (Homo sapiens, T-cell, 24 h): 3500 nM
COc1cc(Nc2ncc(OC)c(NC3CC(C)(C)N(C)C(C)(C)C3)n2)cc(-n2nnnc2C)c1 [Compound I-424] | – | IC50 (Homo sapiens, T-cell, 24 h): 1010 nM
COc1cc(Nc2ncc(C)c(NC3CC(C)(C)N(C)C(C)(C)C3)n2)cc(OC)c1 [Compound I-425] | – | IC50 (Homo sapiens, T-cell, 24 h): 1140 nM
CN(C)c1ccc(-c2ccc(Nc3ncc(F)c(NC4CC(C)(C)N(C)C(C)(C)C4)n3)cc2C#N)cn1 [Compound I-426] | – | IC50 (Homo sapiens, T-cell, 24 h): 420 nM
CN1C(C)(C)CC(Nc2nc(Nc3ccc(-c4ccc(N5CCOCC5)nc4)c(C#N)c3)ncc2F)CC1(C)C [Compound I-427] | – | IC50 (Homo sapiens, T-cell, 24 h): 660 nM
CN(C)c1ccc(-c2ccc(Nc3ncc(F)c(NC4CC(C)(C)NC(C)(C)C4)n3)cc2C#N)cn1 [Compound I-428] | – | IC50 (Homo sapiens, T-cell, 24 h): 560 nM
CC1(C)CC(Nc2nc(Nc3ccc(-c4ccc(N5CCOCC5)nc4)c(C#N)c3)ncc2F)CC(C)(C)N1 [Compound I-429] | – | IC50 (Homo sapiens, T-cell, 24 h): 770 nM
COc1cc(Nc2ncc(C#C[Si](C)(C)C)c(NC3CC(C)(C)N(C)C(C)(C)C3)n2)cc(OC)c1 [Compound I-430] | – | IC50 (T-cell, 24 hours): 4470 nM
COc1cc(Nc2ncc(F)c(NC3CC(C)(C)N(C)C(C)(C)C3)n2)cc(OCCN2CCOCC2)c1 [Compound I-431] | – | IC50 (Homo sapiens, T-cell, 24 h): 450 nM
COc1cc(Nc2ncc(F)c(NC3CC(C)(C)NC(C)(C)C3)n2)cc(OCCN2CCOCC2)c1 [Compound I-432] | – | IC50 (Homo sapiens, T-cell, 24 h): 1530 nM
C#Cc1cnc(Nc2cc(OC)cc(OC)c2)nc1NC1CC(C)(C)N(C)C(C)(C)C1 [Compound I-433] | – | IC50 (Homo sapiens, T-cell, 24 h): 2350 nM
